This is an account of results in patent publication US10973868B2, “Composition for topical use based on a carnosine-magnesium complex” (Outplay Inc., priority 2016, dated 2021).

Where two headings read alike, the source gives them in different places.

For data set [1], the system named is muscle fibres of Rana Temporaria. The following applies: 15 mM of carnosine; cited from earlier work.
The subject of data set [2] is adults with chronic schizophrenia. Briefly: L-carnosine adjunctive treatment in chronic schizophrenia, strategic target detection test. The format is in vivo, human. The following applies: 2 g/day adjunctive, 3 months, vs placebo. From the text:
Improved Cognition In Schizophrenia: Targeting glutamatergic dysfunction provides an exciting opportunity to improve cognitive impairment in schizophrenia. One treatment approach has targeted inadequate antioxidant defenses at glutamatergic synapses. […] We conducted a preliminary study to test the hypothesis that L-carnosine, an antioxidant and anti-glycation agent which is co-localized and released with glutamate would improve executive dysfunction, a cognitive domain associated with glutamate. Seventy-five symptomatically stable adults with chronic schizophrenia were randomly assigned to L-carnosine as adjunctive treatment (2 g/day) or a matched placebo in a double-blind manner for 3 months. […] The recommended dosage is 4-6 ml of the exemplary composition of the topical composition illustrated above four times a day applied to all four limbs.

For data set [3], the system named is rat extensor digitorum longus muscle fibres. The following applies: mechanically skinned fibres; cited from earlier work.
The subject of data set [4] is mice. The following applies: cited from earlier work.
For data set [5] the following is noted: aqueous solution; cited from earlier work.
The subject of data set [6] is children with autistic spectrum disorders. To be noted: after 8 weeks, P<0.05; cited from earlier work.
In data set [7] the test system is horse fibre types. To be noted: cited from earlier work.

Turning to `NCCC(=O)N[C@@H](Cc1c[nH]cn1)C(=O)O` [carnosine, β-alanyl-L-histidine], the “Ca^2+ sensitivity” value in data set [1] is reported as “significant increase”. Also, in data set [2], the “perseverative errors on the strategic target detection test” value is on record as “fewer perseverative errors” and the “strategic efficiency on the strategic target detection test” value is on record as “significantly improved”. Moreover, in data set [3], the “Ca^2+ release from the sarcoplasmic reticulum” value was “did not affect” and the “Ca^2+ sensitivity of the contractile components” value is “increase”. Further, the “amount of brain tissue involved in experimentally-produced strokes” value in data set [4] is given as “significantly reduced”. Further, in data set [5], the “pK of the carboxylic function” value is listed as 2.6. In data set [6], the “Gilliam Autism Rating Scale (total score and Behavior, Socialization, Communication subscales)” value is on record as “statistically significant improvements”; the “Receptive One-Word Picture Vocabulary test” value is “statistically significant improvements”. Besides, the contribution to buffering result in data set [7] (type I fibres) is listed as “about 20%”. Besides, the contribution to buffering result in data set [7] (type IIb fibres) was “up to 46%”.
